How the values were obtained:
[1] = tested on: animal models of Alzheimer's disease; conditions: background statement, literature; cited from earlier work
[2] = Effect of micronization, pressing and grinding (XRD); format: physicochemical; conditions: pressing 1 minute at 100 metric tons
Procedure: The effects of micronization, pressing (1 minute at 100 metric tons) and grinding were determined by XRD and the following results were obtained: […]

Effect of freezing (XRD) = format: physicochemical; conditions: freezer at about −25° C. for 3 months
Procedure: The effects of freezing was determined by XRD and the following results were obtained:
Form A1 was kept in a freezer at about −25° C. for 3 months. Form A1 transformed to Form A in freezer.

[3] = Hygroscopicity study: exposure to 0-100% relative humidity at room temperature (Karl Fischer, TGA, crystal form by XRD); format: physicochemical; parameters: TGA: unit not given here
Text: Form E was placed for 1 week under 0-100% relative humidity at room temperature. Table 1 summarizes the results:
Form F was placed for 14 days under 0-100% relative humidity at room temperature. Table 2 summarizes the results:
Form H was placed for 14 days under 0-100% relative humidity at room temperature. Table 3 summarizes the results:
Form J1 was placed for 9 days under 0-100% relative humidity at room temperature. Table 4 summarizes the results:
Table 5 summarizes the results:
X-Ray powder diffraction data were obtained by method known in the art using a SCINTAG powder X-Ray diffractometer model X'TRA equipped with a solid state detector. Copper radiation of 1.5418 Å was used. A round aluminum sample holder with round zero background quartz plate, with a cavity of 25(diameter)*0.5(depth) mm was used.
(§1) TGA analysis was performed using a Mettler M3 meter. The weight of the samples was about 10 mg. The samples were scanned at a rate of 10° C./min from 25° C. to 200° C. The oven was constantly purged with nitrogen gas at a flow rate of 40 ml/min. Standard 70 μl alumina crucibles covered by lids with 1 hole were used.
(§2) The water content of ladostigil tartrate was measured by methods known in the art, such Karl Fischer analysis.
Crystal form was determined after equilibration of ladostigil tartrate form A for 10 days at various relative humidities at room temperature.
Form A1 was exposed at various humidity conditions at room temperature for 13 days.
Ladostigil tartrate form A1 was exposed to various humidity conditions at room temperature for 14 days. TGA was performed, and the crystal form was analyzed.
A mixture of ladostigil tartrate form A1 and E, containing primarily form A1, was exposed at various humidity conditions at room temperature for 14 days.
Form E was placed for 7 days under 0-100% relative humidity at room temperature. Table 12 summarizes the results:
Form F was placed for 14 days under 0-100% relative humidity at room temperature. Table 14 summarizes the results:
Ladostigil tartrate Form H was exposed for 14 days under 0-100% relative humidity at room temperature. Table 15 summarizes the results:
Crystal ladostigil tartrate Form J1 was placed for 9 days under 0-100% relative humidity at room temperature.

[4] = Water content (Karl Fischer) and loss on drying (TGA) of the form as obtained; format: physicochemical
Procedure: as §1, §2

[5] = 100% RH, 13 days, room temperature
[6] = 100% RH, 14 days, room temperature

Molecule	Efficacy in animal models of Alzheimer's disease [1]	Crystallinity after pressing [2]	Crystal form after freezing (Effect of freezing (XRD))	KF (Karl Fischer analysis) ([3]; 0% RH, 13 days, room temperature)	KF (Karl Fischer analysis) ([3]; 20% RH, 13 days, room temperature)	KF (Karl Fischer analysis) ([3]; 40% RH, 13 days, room temperature)	KF (Karl Fischer analysis) ([3]; 60% RH, 13 days, room temperature)	TGA ([3]; 60% RH, 14 days, room temperature)	KF (Karl Fischer analysis) ([3]; 80% RH, 13 days, room temperature)	TGA ([3]; 80% RH, 14 days, room temperature)	KF (Karl Fischer analysis) [3, 5]	Resulting form [3, 5]	Crystal Form (resulting form) [3, 6]	TGA [3, 6]	Hygroscopicity ([3]; conclusion in words)	Crystal form upon exposure to high relative humidity ([3]; high relative humidity, in words)	Weight loss / loss on drying by TGA [4]	Water content ([4]; by weight)
C#CCN[C@@H]1CCc2ccc(OC(=O)N(C)CC)cc21 [Ladostigil, Ethyl-methyl-carbamic acid (R)-3-prop-2-ynylamino-indan-5-yl ester]	effective																	
carbamic acid, ethylmethyl-, (3R)-2,3-dihydro-3-(2-propynylamino)-1H-inden-5-yl ester, (2R,3R)-2,3-dihydroxybutanedioate (2:1) [Form A1, reference compound]		lose some extent of crystallinity	Form A	0.3%	0.3%	0.3%	0.3%	0.2	0.3%	0.1	0.5%	partially transforms to form A	mixture of Form A and A1	0.1	neither Form A nor Form A1 is hygroscopic	transforms to form A	0.3%	about 0.3%

Reference: US20090275653A1, “POLYMORPHIC FORMS OF LADOSTIGIL TARTRATE” (priority 2005, published 2009)
